According to ChEMBL document CHEMBL1201862, “PubChem BioAssay data set” (2004):
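Cells were grown in 96-well plates and exposed to each compound for 48 hours at five concentrations; endpoints were interpolated linearly between bracketing concentrations, or set to the highest concentration if not reached. The concentration for 50% growth inhibition is given as GI50.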 Active and inactive are the calls of the source. No stated cut-off is given here; in the data, active = GI50 up to about 1.1 µM and inactive = higher.

Experiments:
Assay in all cases: NCI-60 cell line screen, 48 h
M14 = system: M14
SF-295 = system: SF-295
SN12C = system: SN12C
SNB-19 = system: SNB-19
NCI-H226 = system: NCI-H226
OVCAR-3 = system: OVCAR-3
SNB-75 = system: SNB-75
EKVX = system: EKVX
UO-31 = system: UO-31
IGROV-1 = system: IGROV-1
CCRF-CEM = system: CCRF-CEM
NCI-H460 = system: NCI-H460
RXF 393 = system: RXF 393
NCI-H23 = system: NCI-H23
K562 = system: K562
HL-60 = system: HL-60
HOP-92 = system: HOP-92
UACC-257 = system: UACC-257
LOX IMVI = system: LOX IMVI
HCC 2998 = system: HCC 2998

Measured: GI50

Cc1ccc(CCCC(=O)O)cc1C
inactive: M14 > 100 µM | SF-295 > 100 µM | SN12C > 100 µM | SNB-19 > 100 µM | NCI-H226 > 100 µM | OVCAR-3 > 100 µM | SNB-75 39.1 µM | EKVX > 100 µM | UO-31 > 100 µM | IGROV-1 > 100 µM | CCRF-CEM > 100 µM | NCI-H460 > 100 µM | RXF 393 > 100 µM | NCI-H23 > 100 µM | K562 > 100 µM | HL-60 > 100 µM | HOP-92 > 100 µM | UACC-257 > 100 µM | LOX IMVI > 100 µM

Nc1nc(-c2cc(-c3cccc4ccccc34)nc(N)n2)cc(-c2cccc3ccccc23)n1
inactive: M14 > 100 µM | SF-295 65.8 µM | SN12C > 100 µM | SNB-19 > 100 µM | NCI-H226 > 100 µM | OVCAR-3 > 100 µM | EKVX > 100 µM | UO-31 > 100 µM | IGROV-1 > 100 µM | CCRF-CEM > 100 µM | NCI-H460 > 100 µM | RXF 393 > 100 µM | NCI-H23 > 100 µM | K562 > 100 µM | HL-60 > 100 µM | HOP-92 > 100 µM | UACC-257 > 100 µM | LOX IMVI > 100 µM | HCC 2998 > 100 µM

COc1cc2c(C)cc(O)cc2c2cc(O)c(C)cc12
inactive: M14 1.94 µM | SF-295 12.9 µM | SN12C 9.84 µM | SNB-19 11.5 µM | NCI-H226 13.5 µM | OVCAR-3 12 µM | EKVX 11.7 µM | UO-31 9.66 µM | IGROV-1 14.1 µM | CCRF-CEM 2.78 µM | NCI-H460 2.56 µM | RXF 393 12.4 µM | NCI-H23 11.5 µM | K562 2.48 µM | HL-60 2.96 µM | HOP-92 12 µM | UACC-257 12.5 µM | LOX IMVI 2.23 µM | HCC 2998 13.5 µM

COc1cc([C@@H]2c3cc4c(cc3[C@@H](c3c(O)cc(O)c5c3O[C@H](c3ccc(O)c(O)c3)[C@@H](O)C5)[C@H]3COC(=O)[C@H]23)OCO4)cc(OC)c1OC
inactive: M14 25.1 µM | SF-295 1.85 µM | SN12C 32.2 µM | SNB-19 38.4 µM | OVCAR-3 1.64 µM | EKVX 50.1 µM | IGROV-1 44.6 µM | CCRF-CEM 50.7 µM | NCI-H460 1.87 µM | RXF 393 1.71 µM | NCI-H23 78 µM | K562 9.31 µM | HL-60 38.8 µM | HOP-92 > 100 µM | UACC-257 1.95 µM | LOX IMVI 25.6 µM | HCC 2998 1.8 µM

O=C(N/N=C/c1ccccc1)c1cccc2nc3ccccc3nc12
inactive: M14 35 µM | SF-295 17.1 µM | SN12C > 87.9 µM | SNB-19 > 73.1 µM | NCI-H226 38.7 µM | OVCAR-3 > 100 µM | SNB-75 > 100 µM | EKVX > 39.3 µM | UO-31 > 100 µM | IGROV-1 63.5 µM | CCRF-CEM > 74.8 µM | NCI-H460 3.5 µM | RXF 393 > 100 µM | NCI-H23 6.07 µM | K562 > 100 µM | HL-60 > 100 µM | HOP-92 > 69.2 µM | UACC-257 > 100 µM | LOX IMVI 29.9 µM

O=C(O)CCCc1ccc2c(c1)CC1(C2)Cc2ccc(CCCC(=O)O)cc2C1
inactive: M14 > 100 µM | SF-295 > 100 µM | SN12C > 100 µM | NCI-H226 > 100 µM | OVCAR-3 > 100 µM | EKVX > 100 µM | UO-31 > 100 µM | IGROV-1 > 100 µM | CCRF-CEM > 100 µM | RXF 393 > 100 µM | NCI-H23 > 100 µM | K562 > 100 µM | HL-60 > 100 µM | HOP-92 > 100 µM | UACC-257 > 100 µM | LOX IMVI > 100 µM | HCC 2998 > 100 µM

Cc1cccc(Nc2cn(CCOc3ccccc3)c(=O)n(CCOc3ccccc3)c2=O)c1
inactive: M14 > 100 µM | SF-295 > 100 µM | SN12C > 100 µM | SNB-19 > 100 µM | OVCAR-3 > 100 µM | EKVX 2.54 µM | UO-31 > 100 µM | IGROV-1 23.3 µM | CCRF-CEM > 100 µM | NCI-H460 > 100 µM | RXF 393 > 100 µM | NCI-H23 > 100 µM | K562 > 100 µM | HOP-92 56.2 µM | UACC-257 > 100 µM | LOX IMVI > 100 µM | HCC 2998 > 100 µM

COc1cc(CO)cc2c1[nH]c1ccccc12 [KOENOLINE]
inactive: M14 > 25 µM | SN12C > 25 µM | SNB-19 > 25 µM | NCI-H226 1.73 µM | OVCAR-3 > 25 µM | UO-31 > 25 µM | IGROV-1 > 25 µM | CCRF-CEM > 25 µM | NCI-H460 24.4 µM | RXF 393 > 25 µM | K562 11.9 µM | HL-60 > 25 µM | HOP-92 > 25 µM | LOX IMVI > 25 µM | HCC 2998 > 25 µM
